The source of these data is patent publication US7250269B2, “Composition for assaying glycoprotein” (Asahi Kasei Pharma Corporation, priority 2001, dated 2007).

Holding throughout (assay type): biochemical
Assay [1] concerns the target Fusarium oxysporum IFO-9972 fructosyl amino acid oxidase (FOD), mutant FOD-V, 372nd lysine of SEQ ID NO: 1 replaced with valine, SEQ ID NO: 4 (Fusarium oxysporum, UniProt X0D315, K373V). Kind of assay: Substrate specificity of mutant FOD-V, Table 6 (372nd lysine replaced with valine). To be noted: for Kcat: substrate glycated amino acid. How it is done:
(§1) <<Method for Measuring Activity of Enzyme Reacting with Glycated Amino Acid>>
(§2) <Composition of Reaction Solution>
(§3) The glycated amino acid substrate specificity of FOD-mutated recombinant contained in the cell extract prepared in Example 16 was measured using the above-mentioned FOD enzyme activity measuring method. As a result, two mutants of which the reactivity with glycated valine is less than 1/1,000 the reactivity with glycated lysine were identified among candidate strains. These were regarded as the target mutants.
(§4) To observe the effect of replacement with other amino acids at the mutated amino acid site identified in Example 19, the site-directed mutagenesis according to the method of Kunkel et al. was carried out. Synthesis of an oligonucleotide having the base sequence of 1-27 in the sequence table Sequence ID No. 7 was consigned to an outside source (BEX Co., Ltd.). The oligonucleotide was subjected to the site-directed mutagenesis using the Mutan-K kit (manufactured by Takara Shuzo Co., Ltd.) according to the manual attached to the kit. The mutant gene obtained was incorporated again into the expression plasmid pTV119N, introduced into Escherichia coli host, and cultured at 30° C. for 16 hours in a 3.7% BHI liquid medium containing 50 μg/ml of ampicillin and 1 mM of IPTG to produce mutant FOD protein.
(§5) The mutant obtained by replacing the lysine with tryptophan was named FOD-W, the expression plasmid producing the FOD-W was named pcmFOD3, the mutant obtained by replacing the lysine with methionine was named FOD-M, the expression plasmid producing the FOD-M was named pcmFOD4, the mutant obtained by replacing the lysine with valine was named FOD-V, and the expression plasmid producing the FOD-V was named pcmFOD5.

Assay [2] addresses Fusarium oxysporum IFO-9972 fructosyl amino acid oxidase (FOD), mutant with 372nd lysine of SEQ ID NO: 1 replaced with threonine (Fusarium oxysporum, UniProt X0D315, K373T). Kind of assay: Substrate specificity of mutant FOD, Table 6 (372nd lysine replaced with threonine). To be noted: for Kcat: substrate glycated amino acid. As for the experimental part: as §1, §2, §3, §4
Assay [3] deals with Fusarium oxysporum IFO-9972 fructosyl amino acid oxidase (FOD), mutant with 372nd lysine of SEQ ID NO: 1 replaced with arginine (Fusarium oxysporum, UniProt X0D315, K373R). The assay can be described thus: Substrate specificity of mutant FOD, Table 6 (372nd lysine replaced with arginine). To be noted: for Kcat: substrate glycated amino acid. How it is done:
as §1, §2, §3
The base sequences of the mutant FOD genes obtained in Example 18 were determined according to the dideoxy method.
as §4

In assay [4] the target is Fusarium oxysporum IFO-9972 fructosyl amino acid oxidase (FOD), mutant with 372nd lysine of SEQ ID NO: 1 replaced with cysteine (Fusarium oxysporum, UniProt X0D315, K373C). The assay can be described thus: Substrate specificity of mutant FOD, Table 6 (372nd lysine replaced with cysteine). Conditions: for Kcat: substrate glycated amino acid. As for the experimental part:
as §1, §2, §3, §4

Assay [5] addresses Fusarium oxysporum IFO-9972 fructosyl amino acid oxidase (FOD), wild type (372nd lysine), SEQ ID NO: 1 (Fusarium oxysporum, UniProt X0D315). The assay can be described thus: Substrate specificity of FOD, Table 6 (372nd amino acid Lysine, wild type). Conditions: for Kcat: substrate glycated amino acid. How it is done:
as §1, §2, §3, §4

In assay [6] the target is Fusarium oxysporum IFO-9972 fructosyl amino acid oxidase (FOD), mutant FOD-W, 372nd lysine of SEQ ID NO: 1 replaced with tryptophan, SEQ ID NO: 2 (Fusarium oxysporum, UniProt X0D315, K373W). The assay can be described thus: Substrate specificity and Km of mutant FOD-W (372nd lysine replaced with tryptophan). To be noted: substrate glycated amino acid, "below limit" = below the detection limit. How it is done:
as §1, §2, §3
as §4, with “protein. […]” for “protein.”

In assay [7] the target is Fusarium oxysporum IFO-9972 fructosyl amino acid oxidase (FOD), mutant FOD-M, 372nd lysine of SEQ ID NO: 1 replaced with methionine, SEQ ID NO: 3 (Fusarium oxysporum, UniProt X0D315, K373M). Kind of assay: Substrate specificity of mutant FOD-M, Table 6 (372nd lysine replaced with methionine). Conditions: for Kcat: substrate glycated amino acid. How it is done: as §1, §2, §3, §4, §5

For assay [8], the target named is Fusarium oxysporum IFO-9972 fructosyl amino acid oxidase (FOD), mutant with 372nd lysine of SEQ ID NO: 1 replaced with serine (Fusarium oxysporum, UniProt X0D315, K373S). Kind of assay: Substrate specificity of mutant FOD, Table 6 (372nd lysine replaced with serine). Conditions: for Kcat: substrate glycated amino acid. As for the experimental part:
as §1, §2, §3, §4

In assay [9] the target is Fusarium oxysporum IFO-9972 fructosyl amino acid oxidase (FOD), mutant with 372nd lysine of SEQ ID NO: 1 replaced with alanine (Fusarium oxysporum, UniProt X0D315, K373A). Kind of assay: Substrate specificity of mutant FOD, Table 6 (372nd lysine replaced with alanine). To be noted: for Kcat: substrate glycated amino acid. As for the experimental part: as §1, §2, §3, §4

As for `O=C(N[C@@H](CCCCNCC1(O)OC[C@@H](O)[C@@H](O)[C@@H]1O)C(=O)O)OCc1ccccc1` (stereo partly drawn) [glycated lysine, α-carbobenzoxy-ε-D-1-deoxy-fructosyl lysine], the “Kcat reactivity ratio (a)/(b), glycated lysine/glycated valine” value turned out to be 1420 in [1]; 2010 in assay [2]; 788 in assay [3]; 1560 in [4]; 27.1 in assay [5]; 745 in assay [7]. The figures for the “Kcat reactivity ratio (a)/(b), glycated lysine/glycated valine” value in assay [8] and in assay [9] were 747 and 1480, respectively. The Kcat in assay [1] is 1470; in [2] it was 952; in [3], 351; in assay [4], 569; in assay [5], 14900; in assay [6], 248. For the same compound, the Kcat is 853 in assay [7], 1250 in assay [8] and 1790 in assay [9].
For `CC(C)[C@H](NCC1(O)OC[C@@H](O)[C@@H](O)[C@@H]1O)C(=O)O` (some centres unmarked) [glycated valine, 1-deoxy-fructosyl valine], the Kcat is listed as 1.04 in assay [1]; 0.47 in assay [2]; 0.45 in assay [3]; 0.37 in assay [4]; 549 in assay [5]; “below limit” in assay [6]. Besides, the Kcat in assay [7] was found to be 1.14; in [8] it was 1.68; in assay [9], 1.21.
